Measured values: patent publication US20230017045A1, “PYRIDINE AND PYRIMIDINE CARBOXYLATE HERBICIDES AND METHODS OF USE THEREOF” (Dow AgroSciences LLC, priority 2017, published 2023)

system: test plant species; assay: Post-emergent herbicidal activity test (greenhouse, foliar spray, visual growth reduction); format: in vivo; settings: post-emergence, 336 h, ALOMY: blackgrass (Alopecurus myosuroides), 140 g ai/ha, 14 days after application, read-out: Visual Growth Reduction (%) 14 Days After Application, ALOMY
Method in brief: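 Seedlings were raised 7-21 d in a greenhouse under a 15 h photoperiod until the first or second true leaf. Each compound, dissolved in acetone:DMSO 97:3 and diluted into a surfactant-containing spray mixture, was then applied at 187 L/ha. Plants were subirrigated, and growth reduction was scored visually at 14 d.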

Structure (SMILES) | pest or weed control at 140 g/ha [%]
O=C(O)c1nc(-c2ccc(SC(F)(F)F)cc2Cl)c(Cl)cc1Cl [F127, 3,5-Dichloro-6-(2-chloro-4-((trifluoromethyl)thio)phenyl) picolinic acid] | 0 to 29

same assay, conditions: post-emergence, 336 h, AMARE: redroot pigweed (Amaranthus retroflexus), 140 g ai/ha, 14 days after application, read-out: Visual Growth Reduction (%) 14 Days After Application, AMARE

Structure (SMILES) | pest or weed control at 140 g/ha [%]
O=C(O)c1nc(-c2ccc(SC(F)(F)F)cc2Cl)c(Cl)cc1Cl [F127, 3,5-Dichloro-6-(2-chloro-4-((trifluoromethyl)thio)phenyl) picolinic acid] | 95 to 100

same assay, conditions: post-emergence, 336 h, AVEFA: wild oat (Avena fatua), 140 g ai/ha, 14 days after application, read-out: Visual Growth Reduction (%) 14 Days After Application, AVEFA

Structure (SMILES) | pest or weed control at 140 g/ha [%]
O=C(O)c1nc(-c2ccc(SC(F)(F)F)cc2Cl)c(Cl)cc1Cl [F127, 3,5-Dichloro-6-(2-chloro-4-((trifluoromethyl)thio)phenyl) picolinic acid] | 0 to 29

same assay, conditions: post-emergence, 336 h, CHEAL: lambsquarters (Chenopodium album), 140 g ai/ha, 14 days after application, read-out: Visual Growth Reduction (%) 14 Days After Application, CHEAL

Structure (SMILES) | pest or weed control at 140 g/ha [%]
O=C(O)c1nc(-c2ccc(SC(F)(F)F)cc2Cl)c(Cl)cc1Cl [F127, 3,5-Dichloro-6-(2-chloro-4-((trifluoromethyl)thio)phenyl) picolinic acid] | 75 to 84

same assay, conditions: post-emergence, 336 h, CIRAR: canada thistle (Cirsium arvense), 140 g ai/ha, 14 days after application, read-out: Visual Growth Reduction (%) 14 Days After Application, CIRAR

Structure (SMILES) | pest or weed control at 140 g/ha [%]
O=C(O)c1nc(-c2ccc(SC(F)(F)F)cc2Cl)c(Cl)cc1Cl [F127, 3,5-Dichloro-6-(2-chloro-4-((trifluoromethyl)thio)phenyl) picolinic acid] | 85 to 94

same assay, conditions: post-emergence, 336 h, CYPES: yellow nutsedge (Cyperus esculentus), 140 g ai/ha, 14 days after application, read-out: Visual Growth Reduction (%) 14 Days After Application, CYPES

Structure (SMILES) | pest or weed control at 140 g/ha [%]
O=C(O)c1nc(-c2ccc(SC(F)(F)F)cc2Cl)c(Cl)cc1Cl [F127, 3,5-Dichloro-6-(2-chloro-4-((trifluoromethyl)thio)phenyl) picolinic acid] | 0 to 29

same assay, conditions: post-emergence, 336 h, DIGSA: crabgrass (Digitaria sanguinalis), 140 g ai/ha, 14 days after application, read-out: Visual Growth Reduction (%) 14 Days After Application, DIGSA

Structure (SMILES) | pest or weed control at 140 g/ha [%]
O=C(O)c1nc(-c2ccc(SC(F)(F)F)cc2Cl)c(Cl)cc1Cl [F127, 3,5-Dichloro-6-(2-chloro-4-((trifluoromethyl)thio)phenyl) picolinic acid] | 60 to 74

same assay, conditions: post-emergence, 336 h, ECHCG: barnyardgrass (Echinochloa crus-galli), 140 g ai/ha, 14 days after application, read-out: Visual Growth Reduction (%) 14 Days After Application, ECHCG

Structure (SMILES) | pest or weed control at 140 g/ha [%]
COc1c(Cl)ccc(-c2ccc(Cl)c(C(=O)OCc3ccccc3)n2)c1F [F299, Benzyl 3-chloro-6-(4-chloro-2-fluoro-3-methoxyphenyl) picolinate] | 0 to 29
O=C(O)c1nc(-c2ccc(SC(F)(F)F)cc2Cl)c(Cl)cc1Cl [F127, 3,5-Dichloro-6-(2-chloro-4-((trifluoromethyl)thio)phenyl) picolinic acid] | 0 to 29

same assay, conditions: post-emergence, 336 h, IPOHE: ivy-leaf morning glory (Ipomoea hederacea), 140 g ai/ha, 14 days after application, read-out: Visual Growth Reduction (%) 14 Days After Application, IPOHE

Structure (SMILES) | pest or weed control at 140 g/ha [%]
COc1c(Cl)ccc(-c2ccc(Cl)c(C(=O)OCc3ccccc3)n2)c1F [F299, Benzyl 3-chloro-6-(4-chloro-2-fluoro-3-methoxyphenyl) picolinate] | 60 to 74
O=C(O)c1nc(-c2ccc(SC(F)(F)F)cc2Cl)c(Cl)cc1Cl [F127, 3,5-Dichloro-6-(2-chloro-4-((trifluoromethyl)thio)phenyl) picolinic acid] | 45 to 59

same assay, conditions: post-emergence, 336 h, KCHSC: kochia (Bassia scoparia), 140 g ai/ha, 14 days after application, read-out: Visual Growth Reduction (%) 14 Days After Application, KCHSC

Structure (SMILES) | pest or weed control at 140 g/ha [%]
COc1c(Cl)ccc(-c2ccc(Cl)c(C(=O)OCc3ccccc3)n2)c1F [F299, Benzyl 3-chloro-6-(4-chloro-2-fluoro-3-methoxyphenyl) picolinate] | 75 to 84
O=C(O)c1nc(-c2ccc(SC(F)(F)F)cc2Cl)c(Cl)cc1Cl [F127, 3,5-Dichloro-6-(2-chloro-4-((trifluoromethyl)thio)phenyl) picolinic acid] | 75 to 84

same assay, conditions: post-emergence, 336 h, ORYSA: rice (Oryza sativa), 140 g ai/ha, 14 days after application, read-out: Visual Growth Reduction (%) 14 Days After Application, ORYSA

Structure (SMILES) | pest or weed control at 140 g/ha [%]
COc1c(Cl)ccc(-c2ccc(Cl)c(C(=O)OCc3ccccc3)n2)c1F [F299, Benzyl 3-chloro-6-(4-chloro-2-fluoro-3-methoxyphenyl) picolinate] | 0 to 29
O=C(O)c1nc(-c2ccc(SC(F)(F)F)cc2Cl)c(Cl)cc1Cl [F127, 3,5-Dichloro-6-(2-chloro-4-((trifluoromethyl)thio)phenyl) picolinic acid] | 0 to 29

same assay, conditions: post-emergence, 336 h, SETFA: giant foxtail (Setaria faberi), 140 g ai/ha, 14 days after application, read-out: Visual Growth Reduction (%) 14 Days After Application, SETFA

Structure (SMILES) | pest or weed control at 140 g/ha [%]
COc1c(Cl)ccc(-c2ccc(Cl)c(C(=O)OCc3ccccc3)n2)c1F [F299, Benzyl 3-chloro-6-(4-chloro-2-fluoro-3-methoxyphenyl) picolinate] | 0 to 29
O=C(O)c1nc(-c2ccc(SC(F)(F)F)cc2Cl)c(Cl)cc1Cl [F127, 3,5-Dichloro-6-(2-chloro-4-((trifluoromethyl)thio)phenyl) picolinic acid] | 75 to 84

same assay, conditions: post-emergence, 336 h, SORVU: grain sorghum (Sorghum vulgare), 140 g ai/ha, 14 days after application, read-out: Visual Growth Reduction (%) 14 Days After Application, SORVU

Structure (SMILES) | pest or weed control at 140 g/ha [%]
COc1c(Cl)ccc(-c2ccc(Cl)c(C(=O)OCc3ccccc3)n2)c1F [F299, Benzyl 3-chloro-6-(4-chloro-2-fluoro-3-methoxyphenyl) picolinate] | 0 to 29
O=C(O)c1nc(-c2ccc(SC(F)(F)F)cc2Cl)c(Cl)cc1Cl [F127, 3,5-Dichloro-6-(2-chloro-4-((trifluoromethyl)thio)phenyl) picolinic acid] | 60 to 74

same assay, conditions: post-emergence, 336 h, STEME: common chickweed (Stellaria media), 140 g ai/ha, 14 days after application, read-out: Visual Growth Reduction (%) 14 Days After Application, STEME

Structure (SMILES) | pest or weed control at 140 g/ha [%]
COc1c(Cl)ccc(-c2ccc(Cl)c(C(=O)OCc3ccccc3)n2)c1F [F299, Benzyl 3-chloro-6-(4-chloro-2-fluoro-3-methoxyphenyl) picolinate] | 60 to 74
O=C(O)c1nc(-c2ccc(SC(F)(F)F)cc2Cl)c(Cl)cc1Cl [F127, 3,5-Dichloro-6-(2-chloro-4-((trifluoromethyl)thio)phenyl) picolinic acid] | 0 to 29

same assay, conditions: post-emergence, 336 h, TRZAS: wheat, spring (Triticum aestivum), 140 g ai/ha, 14 days after application, read-out: Visual Growth Reduction (%) 14 Days After Application, TRZAS

Structure (SMILES) | pest or weed control at 140 g/ha [%]
COc1c(Cl)ccc(-c2ccc(Cl)c(C(=O)OCc3ccccc3)n2)c1F [F299, Benzyl 3-chloro-6-(4-chloro-2-fluoro-3-methoxyphenyl) picolinate] | 0 to 29
O=C(O)c1nc(-c2ccc(SC(F)(F)F)cc2Cl)c(Cl)cc1Cl [F127, 3,5-Dichloro-6-(2-chloro-4-((trifluoromethyl)thio)phenyl) picolinic acid] | 0 to 29

same assay, conditions: post-emergence, 336 h, blackgrass (Alopecurus myosuroides), 14 Days After Application, 140 g ai/ha, read-out: Visual Growth Reduction (%) ALOMY

Structure (SMILES) | pest or weed control at 140 g/ha [%]
COc1c(Cl)ccc(-c2ccc(Cl)c(C(=O)OCc3ccccc3)n2)c1F [F299, Benzyl 3-chloro-6-(4-chloro-2-fluoro-3-methoxyphenyl) picolinate] | 0 to 29

same assay, conditions: post-emergence, 336 h, canada thistle (Cirsium arvense), 14 Days After Application, 140 g ai/ha, read-out: Visual Growth Reduction (%) CIRAR

Structure (SMILES) | pest or weed control at 140 g/ha [%]
COc1c(Cl)ccc(-c2ccc(Cl)c(C(=O)OCc3ccccc3)n2)c1F [F299, Benzyl 3-chloro-6-(4-chloro-2-fluoro-3-methoxyphenyl) picolinate] | 75 to 84

same assay, conditions: post-emergence, 336 h, crabgrass (Digitaria sanguinalis), 14 Days After Application, 140 g ai/ha, read-out: Visual Growth Reduction (%) DIGSA

Structure (SMILES) | pest or weed control at 140 g/ha [%]
COc1c(Cl)ccc(-c2ccc(Cl)c(C(=O)OCc3ccccc3)n2)c1F [F299, Benzyl 3-chloro-6-(4-chloro-2-fluoro-3-methoxyphenyl) picolinate] | 0 to 29

same assay, conditions: post-emergence, 336 h, lambsquarters (Chenopodium album), 14 Days After Application, 140 g ai/ha, read-out: Visual Growth Reduction (%) CHEAL

Structure (SMILES) | pest or weed control at 140 g/ha [%]
COc1c(Cl)ccc(-c2ccc(Cl)c(C(=O)OCc3ccccc3)n2)c1F [F299, Benzyl 3-chloro-6-(4-chloro-2-fluoro-3-methoxyphenyl) picolinate] | 75 to 84

same assay, conditions: post-emergence, 336 h, redroot pigweed (Amaranthus retroflexus), 14 Days After Application, 140 g ai/ha, read-out: Visual Growth Reduction (%) AMARE

Structure (SMILES) | pest or weed control at 140 g/ha [%]
COc1c(Cl)ccc(-c2ccc(Cl)c(C(=O)OCc3ccccc3)n2)c1F [F299, Benzyl 3-chloro-6-(4-chloro-2-fluoro-3-methoxyphenyl) picolinate] | 60 to 74

same assay, conditions: post-emergence, 336 h, wild oat (Avena fatua), 14 Days After Application, 140 g ai/ha, read-out: Visual Growth Reduction (%) AVEFA

Structure (SMILES) | pest or weed control at 140 g/ha [%]
COc1c(Cl)ccc(-c2ccc(Cl)c(C(=O)OCc3ccccc3)n2)c1F [F299, Benzyl 3-chloro-6-(4-chloro-2-fluoro-3-methoxyphenyl) picolinate] | 0 to 29

same assay, conditions: post-emergence, 336 h, yellow nutsedge (Cyperus esculentus), 14 Days After Application, 140 g ai/ha, read-out: Visual Growth Reduction (%) CYPES

Structure (SMILES) | pest or weed control at 140 g/ha [%]
COc1c(Cl)ccc(-c2ccc(Cl)c(C(=O)OCc3ccccc3)n2)c1F [F299, Benzyl 3-chloro-6-(4-chloro-2-fluoro-3-methoxyphenyl) picolinate] | 75 to 84
